Several values for one entry are separate records, joined by “and”; a condition that tells them apart may be missing. Identical values can stand only once. Like-named read-outs stand apart in the source and are kept apart here.
Columns and labels:
[1] = Adsorption of drug on TiO2 nanoparticles; format: physicochemical
Experimental: To a stirred solution of Sodium Risedronate (625 mg) in deionized water (100 ml) increasing amounts of nanocrystalline TiO2 were added (ca. 20 nm nanoparticle size). […] This limit probably corresponds to a total surface coverage of the nanoparticles.
190 mg of Sodium Risedronate were adsorbed at 25° C. on 3.00 g of TiO2 nanoparticles having an average diameter of 20-25 nm.
(§1) To an aqueous solution containing 625 mg of Sodium Risedronate in 100 ml of deionized water 3.00 g of TiO2 was added. The suspension was stirred for 72 h at room temperature and then centrifuged at 4000 rpm for 10 min. The solid was suspended twice in a pH 1 HCl solution, stirred for 20 min and centrifuged. The solid was finally dried at 40° C. under vacuum.
(§2) A NMR-based method was developed since alendronate lacks the chromophoric group of risedronate. The NMR experiments were carried out in H2O instead of D2O (or other deuterated solvents) simply using the aqueous solutions obtained after removal of TiO2 by centrifugation without concentration or further treatment. Only a small amount of C6D6 in a sealed capillary tube (reusable) inserted into the NMR tube was required to achieve the field lock. […] To determine the concentration of sodium alendronate in aqueous solutions, a known amount of an internal standard was added before each NMR measurements, namely 1,3,5-triaza-7-phospha-adamantane, a water-soluble phosphine.
TiO2 (25 nm, 1.00 g) was added to a solution of Sodium Alendronate trihydrated (207 mg, 0.64 mmol) in H2O (50 ml) and the resulting suspension (pH 4.5) was vigorously stirred in the dark at 25° C. for 48 h, then centrifuged (4,000 rpm, 5 min). The cloudy supernatant was recovered, treated with solid NaCl (ca. 3 g), kept at room temperature for 2 h, and centrifuged (4,000 rpm, 5 min). To the resulting solution was added 1,3,5-triaza-7-phospha-adamantane and the concentration of residual sodium alendronate was estimated by ^31P-NMR as described above.

[2] = Experimental: as §2
Sodium Alendronate trihydrated was adsorbed on TiO2 as described above. After centrifugation, the recovered solid was dried at 40° C./0.1 mbar for 6 h. A suspension of this solid in 50 ml of aqueous HCl (pH 1.0) or NaOH (pH 9.0) was vigorously stirred at the stated temperature in a nitrogen atmosphere. The pH of the basic solution was constantly monitored and maintained at the initial level by addition of 0.05 M NaOH.

[3] = Desorption of Sodium Risedronate from TiO2 in aqueous solution at different pH; format: physicochemical; details: for amount released, % of the initial concentration on TiO2: pH=8, 25° C.
Experimental: Desorption of Sodium Risedronate from TiO2 at 25° C. was studied in aqueous solution at different pH values.
The desorption as function of time of Sodium Risedronate from TiO2 was studied in aqueous solution at pH 9 and at 36° C.
as §1
Nine separate 30 mg portions of TiO2 adsorbed with Sodium Risedronate were suspended in 10 ml of pH 9 NaOH solutions and left stirring for different times in the range 1-120 min. During drug desorption the pH of the suspension was kept at the original value by small addition of NaOH solution. In all cases the concentration of desorbed drug was corrected for volume changes.

[4] = in vivo; cited from earlier work
[5] = 1.00 g TiO2 (25 nm), 24 h stirring, 25° C.
[6] = 250 mg of TiO2 carrying 16 mg of drug

| amount adsorbed on TiO2 ([1]; 1.00 g TiO2 (25 nm), 207 mg in 50 ml H2O, 48 h stirring, 25° C.) | amount adsorbed on TiO2 [1, 5] | amount adsorbed, % of the initial amount [1, 5] | amount adsorbed, % of the initial amount ([1]; 1.00 g TiO2 (25 nm), 48 h stirring, 25° C.) | release to the intestine [2, 6] | Desorption ([2]; pH 1.0, 2 h stirring at 25° C.) | Desorption ([2]; pH 9.0, 30 min stirring at 25° C.) | Desorption ([2]; pH 9.0, 2 h stirring at 25° C.) | Desorption ([2]; pH 9.0, 6 h stirring at 37° C.) | SMILES | amount of drug which can be adsorbed on the surface of the nanocrystalline substrate ([1]; 625 mg in 100 ml deionized water, increasing amounts of TiO2 ca. 20 nm, limit value) | amount adsorbed on TiO2 ([1]; on 3.00 g of TiO2 nanoparticles (20-25 nm), 25° C./room temperature, from 625 mg) | amount of drug released in the intestine [3, 6] | release in the gastroesophageal region [3, 6] | adsorbed drug desorbed ([3]; pH 9, 36° C., after 1 minute) | amount of drug released ([3]; pH 9, 36° C., in the next 60 min) | amount of drug released ([3]; pH 9, 36° C., longer times (up to 120 min), constant) | amount released, % of the initial concentration on TiO2 ([3]; after 30 min) | amount released, % of the initial concentration on TiO2 ([3]; after 2 hours) | oral bioavailability [4] |
| --- | --- | --- | --- | --- | --- | --- | --- | --- | --- | --- | --- | --- | --- | --- | --- | --- | --- | --- | --- |
| 71 mg | 66 mg | 32% | 34% and 26-34% | 4 mg | not detected | 8% | 12% | 22% and 16-22% | NCCCC(O)(P(=O)(O)O)P(=O)(O)O [Sodium Alendronate] | – | – | – | – | – | – | – | – | – | – |
| – | – | – | – | – | – | – | – | – | O=P(O)(O)C(O)(Cc1cccnc1)P(=O)(O)O [Sodium Risedronate] | 31% | 190 mg | 6 to 9 mg | negligible release | 25% | 36% | 36% | ~35% | 35% | 0.63% |
